Reference: patent publication US20150216182A1, “COMPOSITIONS AND METHODS OF THE ATTRACTION AND REPULSION OF INSECTS” (Olfactor Laboratories, Inc., priority 2012, published 2015)
“Also recorded” adds a separate entry of the source.

Assays:
Aedes aegypti = assay: landing assay; assay type: in vivo; settings: mesh treated with 1% in acetone, FIG. 2
Source text: Behavior assays were developed to aid in the evaluation of compounds and compositions of the present invention. These assays include the landing assay and the netsphere assay. These assays were utilized to determine the effectiveness of said compounds and compositions with regard to attracting or repelling mosquitoes of the species Aedes aegypti. Due to the highly conserved nature of the carbon dioxide receptor across the order Diptera, the results obtained for Aedes aegypti are likely to be intuitive with regard to other members of the mosquito family Culicidae as well as with regard to other dipteran family members.
The landing assay is an assay used to test for attraction toward human skin. A human gloved hand with an opening cutout protected by 2 layers of mesh was inserted into a 12×12×12 inch cage of female mosquitoes. The first layer of mesh was used to protect the human from chemical contact as well as mosquito contact. A second layer of mesh was treated with a chemical compound or composition that had been dissolved at a concentration of 1% in acetone and allowed to dry on said mesh for three minutes. This second layer of mesh was placed on top of the first mesh layer. The two mesh layers were separated by outer magnetic strips to hold the layers in place on the glove. This experimental design allows the test subjects, starved female mosquitoes, to be exposed to human skin odors as well as the compound or composition concurrently. The cage contained 30 female and 3 male mosquitoes. The landing of mosquitoes on the treated surface was videotaped over a 5 minute time course and the number of landings during that time period was recorded. Mesh treated with acetone alone was used as a negative control. This experiment was done in triplicate for each compound or composition tested. The results from one such experiment are pictured in FIG. 2.

Aedes aegypti mosquitoes = assay: netsphere assay; assay type: in vivo; settings: baited BG-Sentinel trap, overnight collection; FIG. 3
Experimental: The netsphere assay was conducted in a semi-field containment area. The containment area was 1,000 square feet in size and environmental cues such as temperature, humidity, lighting and airflow were controlled to replicate conditions that Aedes aegypti mosquitoes would encounter in the wild. The containment area was conditioned for 2 hours prior to experimentation to allow for equalization of environmental conditions. Fifty female and five male mosquitoes were then released into the chamber and given one hour to acclimate to the environment. Following this, a BG-Sentinel trap (Biogents AG, Regensburg, Germany) was baited with either cyclopentanone, 2-pentanone or 2,4-lutidine and placed in the chamber in the presence of a non-baited BG-Sentinel (as a negative control for trap attraction). The collection was allowed to proceed overnight during which lighting conditions in the chamber were set to mimic those of starlight. The following day, mosquitoes caught in the trap were frozen at −20° C. and counted. These counts were compared to control experiments where CO2 from a tank, at a flow rate of 250 ml/min, was used as bait.

larvae = assay: larvicidal activity assay; assay type: in vivo; settings: 24 h
Experimental: A 6-well plate (Corning Life Sciences, Tewksbury, Mass.) is used to test a compound's larvicidal activity. […] After a 24 hour exposure, the number of dead larvae are counted and recorded.
The results are presented in Table 17 as % lethality (the number of dead larvae divided by the total number of larvae).

bed bugs = assay: bed bug luring assay; assay type: in vivo; settings: cottonball with 100 microliters solution, total 100 mg compound(s), 10 bed bugs, overnight
Experimental: Assays were conducted to measure the ability of compounds and compound combinations to attract bed bugs. A testing arena habitat comprising a small plastic container was placed inside of a larger, secondary container. The top half inch was removed from two bathroom sized solo cups and each cup was placed on opposite sides of the testing arena habitat, one inch away from the wall. Each outer part of the cup was textured using sandpaper, as bed bugs cannot climb smooth surfaces. A paper towel was used to line the floor of the testing arena habitat. The top, removed portion of one of the solo cups was placed mouth side down in the center of the arena. In one of the cups, a cottonball was placed and treated with 100 microliters of compound or compound combination solution [comprising a total of 100 mg of compound(s).] 10 bed bugs were placed within the center cut off cup top and the testing arena habitat was covered and placed within a dark, climate controlled room overnight. The next day, the number of bed bugs that crawled into the baited cup were recorded and the % attractancy was calculated as the percentage of bugs that crawled into the baited cup as compared to the total number of bed bugs. In the Table, “Att” refers to attractancy and “Cmpd” refers to compound.

female mosquitoes = assay: whole plant or invertebrate; settings: 2 h
cpA neurons = assay: extracellular single-sensillum electrophysiology: activation of cpA neuronal activity

## CCCC(C)=O [OLI0018, 2-pentanone]
Aedes aegypti; 5 minute time course
  number of landings: 37 landings
Aedes aegypti
  behaviour in landing assay (lure or repellent): act as lures
Aedes aegypti mosquitoes
  behaviour in netsphere assay (attractant or repellent): act as attractants; also recorded: attract mosquitoes
larvae; read-out: % Lethality at 100 ppm
  pest or weed control at 100 ppm: 0%
larvae; read-out: % Lethality with 0.25% compound conc.
  pest or weed control at 0.25 %: 0%
Bed bugs
  % Att (bed bug attractancy): 30%
Female mosquitoes; read-out: % mortality with 0.2 mg/ml
  mortality at 200 µg/mL: 0%
Female mosquitoes; read-out: % mortality with 2 mg/ml
  mortality at 2000 µg/mL: 0%
cpA neurons; Table 6, single compounds, increase over baseline cpA neuronal activity
  Class: Moderate Activator (Moderate activators yield an increase in neuronal activity that is between 40 and 60 spk/sec over baseline neuronal activity)
cpA neurons; Table 9, component A tested individually
  Comp A Class: Mod
cpA neurons; Table 9, component B tested individually
  Comp B Class: Mod
cpA neurons; Table 15, single component alone, Mod Actv
  Class B (activator class of the individual component): Mod
